Key:
[1] = molecular target: J774-A1 macrophage elastase; assay: Elastase activity in J774-A1 macrophages; assay type: biochemical, mouse
[2] = system: CF1 male mice, carrageenan induced edema; assay: Anti-inflammatory screen in mice (carrageenan induced foot edema); assay type: in vivo; settings: for Percent of Control (induced edema): CF1 male mice, N=6
Source text: Few reports in the literature indicate interaction at these receptor sites other than by peptides or antibodies. […] Blocking these receptors is desirable because the entire inflammation cascade of events is triggered by the early release of TNFa and IL-1. […] Radioisotopes were obtained from New England Nuclear [Dupont, Boston, MA] and substrates and co- factors were obtained from Sigma Chemical Co. [St. Louis, MO]. […] Cell lines were obtained from American Type Culture Collection [Rockville, MD]. In Vivo Tests Anti-inflammatory screen in mice: Male CF male mice weighing 28-32g obtained from Jackson Lab. […] Evaluation of the induced edema was made by injecting 2% carrageenan in 0.9% saline into the plantar region of the foot. The opposite foot injected with 0.9% isotonic saline was used as a base line. […] Salmonella abortus equi [Lot # 69F4003] […] Drugs from 2 to 16 mg/kg, I.P. were administered 2 hr prior and 2 hr post-injection of the LPS and then subsequently for every 24 hr for the length ofthe animals' lives. Deaths were recorded every 12 hr and continued for 96 hr. […] In vitro TNFa andIL-1 Measurements and Cellular Regulation IC-21 mouse macrophages were maintained in RPMI-1640 + 10% FCS + P/S. After the cells had grown to confluency, E. coli LPS at 10 Ixg/ml was added to the medium. Agents were incubated at 12.5 to 100 µM final concentration for 18 hr. The medium (100 btl) was collected for TNFCt determinations. Interleukin-1 [IL-1] release was determined using P388D1 cells which were maintained in RPMI-1640 + 10% FCS + P/S. The L929 bioassay was used to quantitate the TNF and the IL-1 levels. The L929 mouse fibroblasts were grown in DMEM + 10% FCS + P/S to confluency in 96 well plates and incubated with 100 tl ofmedium from […] or P388D cells after 18 hr. The cells were stained with 0.2% crystal violet in 20% MeOH and read at 580 nm using a Molecular Devices scanner (SOFT-max program). High Affinity Binding to Receptors on L929-106 Cells Two laCi of 125I-TNFct (human recombinant, 30 mCi/tg New England Nuclear) or 125I-IL-1 (70-120[.t Ci/lxg,New England Nuclear) was added to confluency L929 cells for 90 min or 5 hr, respectively with 25, 50 and 100 tM of the test compounds 12]. The cells were washed repeatedly with isotonic saline, pH.7.2 and aliquots counted. Prostaglandin cylcooxygenase activity Mouse J774AI macrophages maintained in Dulbecco's modified Eagle's medium + 15% FCS + P/S. Cells (5 x 106) were incubated with agents (5 to 100 ].tM final concentration) and 3H-arachidonic acid (100 Ci/mol) for 60 min at 37C in a CO2 incubator. The reaction was terminated with 2N HCI, the mixture extracted 2 X with ether, and the organic layer evaporated.

[3] = system: RPMI 1788 leukocytes adhesion to L929 fibroblasts; assay: Adhesion of human leukocytes RPMI-1788 to confluent L929 fibroblasts; assay type: cell-based; settings: for Adhesion, Percent of Control: N=6; for reducing the adhesion of human leukocytes / reducing significantly the adhesion of human leukocytes: 5 to 50 μM; for reducing the adhesion of human leukocytes: at 2 and 5 hr; for reducing significantly the adhesion of human leukocytes: at 60 and 90 min
[4] = system: IL-8 high affinity receptor on chinese hamster ovarian carcinoma K-1 cells; assay: 125I-IL-8 high affinity binding to chinese hamster ovarian carcinoma K-1 cells; settings: for 125I-IL-8 binding, Percent of Control: N=6
[5] = molecular target: T1, IL-2 high affinity receptor on HUT78 T lymphoma cell membrane (Homo sapiens, UniProt P01589+P14784); assay: 125I-IL-2 high affinity binding to HuT78 T lymphoma cells; settings: for 125I-IL-2 binding, Percent of Control: N=6; for reduction of IL-2 high affinity binding: 5 hr
T1 construct: host or cells: HuT78 T lymphoma cells
T1 sequence (P01589 22-272): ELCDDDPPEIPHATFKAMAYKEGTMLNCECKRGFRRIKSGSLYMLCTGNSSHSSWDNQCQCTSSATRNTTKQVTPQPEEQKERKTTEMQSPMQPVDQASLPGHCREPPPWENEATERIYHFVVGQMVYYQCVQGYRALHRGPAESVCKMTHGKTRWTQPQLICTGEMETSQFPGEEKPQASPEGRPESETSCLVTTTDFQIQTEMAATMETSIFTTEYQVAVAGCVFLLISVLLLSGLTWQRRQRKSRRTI
T1 sequence (P14784 27-551): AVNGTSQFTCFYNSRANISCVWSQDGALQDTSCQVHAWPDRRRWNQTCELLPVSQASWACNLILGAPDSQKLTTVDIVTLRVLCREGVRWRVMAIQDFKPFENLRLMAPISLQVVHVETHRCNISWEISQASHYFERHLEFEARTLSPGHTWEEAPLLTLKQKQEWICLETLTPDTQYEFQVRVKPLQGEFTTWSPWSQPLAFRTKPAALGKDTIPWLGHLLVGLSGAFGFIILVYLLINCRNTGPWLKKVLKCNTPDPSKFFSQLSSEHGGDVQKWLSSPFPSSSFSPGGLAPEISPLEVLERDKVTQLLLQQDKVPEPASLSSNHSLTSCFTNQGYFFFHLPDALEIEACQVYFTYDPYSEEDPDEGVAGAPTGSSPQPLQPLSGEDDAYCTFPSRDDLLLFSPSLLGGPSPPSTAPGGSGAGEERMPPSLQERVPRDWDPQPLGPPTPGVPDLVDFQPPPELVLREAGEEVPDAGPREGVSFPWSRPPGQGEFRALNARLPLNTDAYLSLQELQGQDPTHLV

Compound | IC50 Elastase J774-A1 ([1]; 120 min) | Percent of Control (induced edema) ([2]; 16 mg/Kg X 2, I.P.) | Adhesion, Percent of Control ([3]; 5 μM, 60 min) | Adhesion, Percent of Control ([3]; 5 μM, 90 min) | Adhesion, Percent of Control ([3]; 12.5 μM, 2 Hours) | Adhesion, Percent of Control ([3]; 12.5 μM, 5 Hours) | Adhesion, Percent of Control ([3]; 25 μM, 2 Hours) | Adhesion, Percent of Control ([3]; 50 μM, 2 Hours) | 125I-IL-8 binding, Percent of Control ([4]; 50 μM, 5 Hours) | 125I-IL-8 binding, Percent of Control ([4]; 50 μM, 24 Hours) | 125I-IL-8 binding, Percent of Control ([4]; 100 μM, 24 Hours) | 125I-IL-2 binding, Percent of Control ([5]; 5 μM, 2 Hours) | 125I-IL-2 binding, Percent of Control ([5]; 5 μM, 5 Hours) | 125I-IL-2 binding, Percent of Control ([5]; 12.5 μM, 2 Hours) | 125I-IL-2 binding, Percent of Control ([5]; 12.5 μM, 5 Hours) | 125I-IL-2 binding, Percent of Control ([5]; 25 μM, 2 Hours) | 125I-IL-2 binding, Percent of Control ([5]; 25 μM, 5 Hours) | 125I-IL-2 binding, Percent of Control ([5]; 50 μM, 2 Hours) | 125I-IL-2 binding, Percent of Control ([5]; 50 μM, 5 Hours) | reduction of IL-2 high affinity binding ([5]; 50 μM) [%] | also measured
COc1c2cc(S(=O)(=O)[O-])cc1Cc1cc(S(=O)(=O)[O-])cc(c1OC)Cc1cc(S(=O)(=O)[O-])cc(c1OC)Cc1cc(S(=O)(=O)[O-])cc(c1OC)Cc1cc(S(=O)(=O)[O-])cc(c1OC)Cc1cc(S(=O)(=O)[O-])cc(c1OC)C2.[Na+].[Na+].[Na+].[Na+].[Na+].[Na+] [Compound 6] | Increased | 48+3% of Control | 46 + 4% of Control | 62 + 5% of Control | 125 + 5% of Control | 92 + 4% of Control | 100 + 6% of Control | 108 + 6% of Control | 54 + 5% of Control | 65 + 7% of Control | 55 + 4% of Control | 142 + 6% of Control | 100 + 6% of Control | 115 + 5% of Control | 92 + 6% of Control | 85 + 5% of Control | 78 + 5% of Control | 81 + 4% of Control | 55 + 4% of Control | 45 | reduction of edema ([2]; 16 mg/kg X 2): greater than 40%; Adhesion, Percent of Control ([3]; 12.5 μM, 60 min): 49 + 6% of Control; Adhesion, Percent of Control ([3]; 12.5 μM, 90 min): 55 + 6% of Control; Adhesion, Percent of Control ([3]; 25 μM, 5 Hours): 95 + 5% of Control; Adhesion, Percent of Control ([3]; 25 μM, 60 min): 30 + 3% of Control; Adhesion, Percent of Control ([3]; 25 μM, 90 min): 71 + 5% of Control; Adhesion, Percent of Control ([3]; 50 μM, 5 Hours): 88+ 7% of Control; Adhesion, Percent of Control ([3]; 50 μM, 60 min): 41 + 5% of Control; reducing the adhesion of human leukocytes [3]: not effective; reducing significantly the adhesion of human leukocytes [3]: effective; reduction of IL-8 high affinity binding ([4]; at 5 hr and 24 hr): ~45%
CC(=O)Oc1c2cc(S(=O)(=O)[O-])cc1Cc1cc(S(=O)(=O)[O-])cc(c1OC(C)=O)Cc1cc(S(=O)(=O)[O-])cc(c1OC(C)=O)Cc1cc(S(=O)(=O)[O-])cc(c1OC(C)=O)Cc1cc(S(=O)(=O)[O-])cc(c1OC(C)=O)Cc1cc(S(=O)(=O)[O-])cc(c1OC(C)=O)Cc1cc(S(=O)(=O)[O-])cc(c1OC(C)=O)Cc1cc(S(=O)(=O)[O-])cc(c1OC(C)=O)C2.[Na+].[Na+].[Na+].[Na+].[Na+].[Na+].[Na+].[Na+] [Compound 8] | – | 38+3% of Control | 49 + 7% of Control | 108+6% of Control | – | – | 108+4% of Control | 116+6% of Control | 79 + 4% of Control | 58 + 7% of Control | 51 + 6% of Control | 138 + 5% of Control | 85 + 5% of Control | 215 + 7% of Control | 78 + 4% of Control | 88 + 6% of Control | 59 + 5% of Control | 38 + 4% of Control | 55 + 6% of Control | 45 | IC50 ([1]; 60 min): 10 to 30 µM; IC50 ([1]; 60 min, listed as #8): 24.5 µM; IC50 ([1]; 120 min): 350 µM; Percent of Control (induced edema) ([2]; 8 mg/Kg X 2, I.P.): 70 + 6% of Control; Adhesion, Percent of Control ([3]; 12.5 μM, 60 min): 40+ 5% of Control; Adhesion, Percent of Control ([3]; 12.5 μM, 90 min): 65 +6% of Control; Adhesion, Percent of Control ([3]; 25 μM, 60 min): 41 +5% of Control; Adhesion, Percent of Control ([3]; 25 μM, 90 min): 63+3% of Control; Adhesion, Percent of Control ([3]; 50 μM, 60 min): 55+4% of Control; reducing the adhesion of human leukocytes [3]: not effective; reducing significantly the adhesion of human leukocytes [3]: effective; reduction of IL-8 high affinity binding ([4]; 50 μM, 5 hr): 21-23%; reduction of IL-8 high affinity binding ([4]; 24 hr): greater than 40%; reduction of IL-2 binding ([5]; 50 μM, 2 hr): 62%
Pentosan sulfate [Pentosan polysulfate, reference compound] | Increased | 49+4% of Control | – | – | 83+5% of Control | 82+5% of Control | 116+6% of Control | 147+6% of Control | 79 + 6% of Control | 51 + 6% of Control | 47 + 8% of Control | 362 + 9% of Control | 148 + 5% of Control | 188 + 5% of Control | 89 + 6% of Control | 123 + 7% of Control | 81 + 6% of Control | 104 + 6% of Control | 55 + 4% of Control | 45 | Adhesion, Percent of Control ([3]; 25 μM, 5 Hours): 82+6% of Control; reduction of IL-8 high affinity binding ([4]; 50 μM, 5 hr): 21-23%; reduction of IL-8 high affinity binding ([4]; 24 hr): greater than 40%
